Values of other authors as cited in patent publication US20090004105A1, “Molecular imaging of matrix metalloproteinase expression using labeled chlorotoxin” (priority 2007, published 2009).

Assays:
[1] = target: T1, MMP-2 presented on the surface of glioma cells (Homo sapiens, UniProt P08253); settings: Deshane et al. 2003
T1 sequence (P08253 110-660): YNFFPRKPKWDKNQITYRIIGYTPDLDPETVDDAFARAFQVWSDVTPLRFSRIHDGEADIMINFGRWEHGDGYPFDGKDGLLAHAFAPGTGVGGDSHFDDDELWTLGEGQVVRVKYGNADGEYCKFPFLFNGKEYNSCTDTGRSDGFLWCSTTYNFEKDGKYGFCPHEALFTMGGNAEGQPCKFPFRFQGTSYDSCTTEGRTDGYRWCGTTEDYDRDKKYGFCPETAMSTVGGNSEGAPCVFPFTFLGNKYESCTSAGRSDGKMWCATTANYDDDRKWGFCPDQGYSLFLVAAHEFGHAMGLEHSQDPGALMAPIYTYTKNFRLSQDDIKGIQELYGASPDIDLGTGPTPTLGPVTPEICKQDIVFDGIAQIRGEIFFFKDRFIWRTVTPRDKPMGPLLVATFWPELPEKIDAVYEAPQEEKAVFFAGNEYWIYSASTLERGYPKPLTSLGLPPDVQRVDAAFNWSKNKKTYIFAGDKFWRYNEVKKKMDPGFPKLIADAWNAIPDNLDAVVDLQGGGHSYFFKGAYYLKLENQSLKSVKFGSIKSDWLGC

[2] = system: tumors of neuroectodermal origin; settings: immunohistochemical studies, Lyons et al. 2002

## Chlorotoxin [Cltx]
[1]
  MMP-2 inhibition: specific MMP-2 inhibitor
  binding affinity to MMP-2 on glioma cell surface: high affinity
[2]
  binding to tumors of neuroectodermal origin: specifically and selectively binds
